Assay type in all cases: in vivo
Assay [1] concerns Lolium perenne L. (LOLPE). Nature of the assay: Glasshouse herbicide efficacy of imazethapyrammonium with adjuvants, fresh weight after 14 days. Conditions: imazethapyrammonium 4.0 g ae/ha, adjuvant where named 0.25% w/v, plants in 2-3-leaf stage, untreated 13.97 g. How it is done: (§1) Test formulations are prepared by adjusting an aqueous solution of imazethapyrammonium to a concentration of 5 mmol. The adjuvants are added to this solution in an amount corresponding to a concentration of 0.25% w/v (2.5 g/l). These test solutions are applied in various concentrations (concentration stated g ae/ha, where ae means acidic equivalent) to the plant species Solanum Nigrum L. (SOLNI) and Lolium perenne L. (LOLPE) while they are in the 2-3-leaf stage in a glasshouse as shown in the following table.
(§2) After 14 days, the efficacy of the herbicidal formulation is assessed by weighing the plant parts still present (fresh weight).

Assay [2] deals with Solanum Nigrum L. (SOLNI). Described as above. The following applies: imazethapyrammonium 4.0 g ae/ha, adjuvant where named 0.25% w/v, plants in 2-3-leaf stage, untreated 15.42 g. How it is done: as §1, §2
A further assay has as its system Avena fatura L. (AVEFA). The experiment in a line: Glasshouse herbicide efficacy of clodinafop propargyl (Topic 240) with adjuvants, fresh weight after 21 days. The following applies: clodinafop propargyl 5 g a.i./ha (Topic 240 in water), adjuvant where named 0.25% w/v, plants in 2-3-leaf stage, untreated 17.48 g. How it is done:
Test formulations are prepared by mixing the commercially available formulation Topic 240, which contains 240 g of clodinafop propargyl per liter of formulation, as stated by the manufacturer (Syngenta), with water. The adjuvants are added to this emulsion in an amount corresponding to a concentration of 0.25% w/v (2.5 g/l). These test solutions are applied in various concentrations (concentration stated in g a.i/ha, where a.i. means active ingredient) to the plant species Avena fatura L. (AVEFA) while they are in the 2-3-leaf stage in a glasshouse as shown in the following table.
After 21 days, the efficacy of the herbicidal formulation is assessed by weighing the plant parts which are still present (fresh weight).

In the case of `CCc1cnc(C2=NC(C)(C(C)C)C(=O)N2)c(C(=O)O)c1.N` (stereo not drawn) [Imazethapyrammonium, imazethapyrammonium], the “fresh weight [g] LOLPE” value in assay [1] worked out at 13.40 g. In assay [2], the “fresh weight [g] SOLNI” value is reported as 10.61 g.
Regarding `C#CCOC(=O)[C@@H](C)Oc1ccc(Oc2ncc(Cl)cc2F)cc1` [Clodinafop propargyl, clodinafop propargyl], the “fresh weight [g] AVEFA” value with Avena fatura L. (AVEFA) turned out to be 15.69 g.
